Data as given in publication PMC6753210, “^18F-Labeled Cyclized α-Melanocyte-Stimulating Hormone Derivatives for Imaging Human Melanoma Xenograft with Positron Emission Tomography” (Scientific Reports, 2019).

Columns and labels:
MC1R = target: T1, MC1R (Mus musculus, UniProt Q01727); test: In vitro competition binding assay with [^125I]NDP-αMSH on B16-F10 cells; details: 0.1 nM [^125I]NDP-αMSH, 25 °C, 1 h, n = 3
T1 construct: endogenous in cells; host or cells: B16-F10 mouse melanoma cells
Method: Receptor binding affinity of CCZ01096 was assessed using previously published procedures. Briefly, approximately 500,000 B16-F10 cells/well were seeded onto 24 well poly-D-lysine plates overnight. The cells were washed with PBS and the growth media was replaced by the reaction buffer described above. Increasing concentrations of non-radioactive CCZ01096 (0.5 pM to 5 μM) along with 0.1 nM of [^125I]NDP-αMSH were also added. The reaction mixture was incubated at 25 °C with moderate agitation for 1 h. Cells were washed with ice-cold PBS, harvested, and measured for radioactivity on a WIZARD 2480 gamma counter.

[1] = test system: SK-MEL-1 human melanoma xenografts; test: Biodistribution in NSG mice bearing human SK-MEL-1 melanoma xenografts; assay type: in vivo, mouse; details: 1 h p.i.
Method: (§1) All animal experiments were conducted in according to the guidelines established by Canadian Council on Animal Care and approved by Animal Ethics Committee of the University of British Columbia. Male C57BL/6 J and immunodeficient NSG mice were obtained from an in-house breeding colony at the BC Cancer Research Centre. For tumor implantation, mice were anesthetized by inhalation with 2% isoflurane, 1 × 10^6 B16-F10 and 5 × 10^6 SK-MEL-1 cells were inoculated subcutaneously on the right dorsal flank of C57BL/6J and NSG mice, respectively. Mice were used for imaging or biodistribution studies when the tumors reached 6–8 mm in diameter.
(§2) μPET/μCT imaging and biodistribution experiments were performed on a μPET/μCT scanner (Inveon, Siemens) using previously published procedures. Briefly, tumor-bearing mice were injected with approximately 3.0–5.0 MBq (for imaging) or <1.5 MBq (for biodistribution) of radiolabeled peptides via tail vein under sedation (2% isoflurane inhalation). For [^18F]FDG imaging and biodistribution, mice underwent fasting overnight prior to the experiments. Imaging studies were performed in duplicate or triplicate. […] After injection, mice were allowed to recover and roam freely in their cages. At 1 or 2 h p.i., mice were anesthetized again and positioned in the scanner. A baseline CT scan was obtained for localization and attenuation correction, followed by a 10–15 min static μPET scan. For biodistribution studies, mice were euthanized by CO2 inhalation, blood was withdrawn promptly, and the tissues of interest were harvested, rinsed, and blotted dry. All tissues were weighed and the radioactivity of the collected samples was measured using a WIZARD 2480 gamma counter.

[2] = as above; assay type: in vivo, mouse; details: male, NSG, mouse, SK-MEL-1 tumor, iv, total radioactivity, 1 h p.i., n = 4
Method: as §1, §2

[3] = NSG mice, SK-MEL-1 xenograft, unblocked, n = 5 ([^18F]FDG n = 4)

T1 sequence (Q01727 whole entry): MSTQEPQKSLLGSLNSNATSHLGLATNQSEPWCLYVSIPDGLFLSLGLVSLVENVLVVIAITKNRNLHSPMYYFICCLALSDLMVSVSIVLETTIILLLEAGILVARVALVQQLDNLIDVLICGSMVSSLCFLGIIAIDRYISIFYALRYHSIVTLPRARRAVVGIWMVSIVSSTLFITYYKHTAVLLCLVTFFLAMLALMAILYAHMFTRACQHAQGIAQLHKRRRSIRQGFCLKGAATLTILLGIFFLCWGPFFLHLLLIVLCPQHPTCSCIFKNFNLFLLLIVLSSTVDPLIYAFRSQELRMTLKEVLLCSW

## CCCC[C@H](NC(=O)CN1CCC(NC(=O)C(CCCCNC(=O)Cn2cc(C[N+](C)(C)C[B-](F)(F)F)nn2)NC(=O)Cn2cc(C[N+](C)(C)C[B-](F)(F)F)nn2)CC1)C(=O)N[C@H]1CC(=O)NCCCC[C@@H](C(N)=O)NC(=O)[C@H](Cc2c[nH]c3ccccc23)NC(=O)[C@H](CCCNC(=N)N)NC(=O)[C@@H](Cc2ccccc2)NC(=O)[C@H](Cc2c[nH]cn2)NC1=O (stereo partly drawn) [CCZ01096]
MC1R
  Ki: 0.51 ± 0.08 nM

## OC[C@H]1OC(O)[C@H]([18F])[C@@H](O)[C@@H]1O (stereo partly drawn) [[^18F]FDG, 2-[^18F]fluorodeoxyglucose]
[1]; [3]
  Adrenal glands uptake: 2.05±0.28 %ID/g
  Blood uptake: 0.95±0.27 %ID/g
  Bone uptake: 0.86 ± 0.35 %ID/g
  Brain uptake: 9.54 ± 1.69 %ID/g
  Fat uptake: 0.86±0.21 %ID/g
  Heart uptake: 8.80 ± 4.42 %ID/g
  Intestines uptake: 3.95 ± 0.16 %ID/g
  Kidneys uptake: 3.01±0.28 %ID/g
  Liver uptake: 1.48±0.14 %ID/g
  Lungs uptake: 3.42±0.40 %ID/g
  Muscle uptake: 1.75 ± 0.54 %ID/g
  Pancreas uptake: 1.41±0.20 %ID/g
  Seminal glands uptake: 4.63 ± 0.57 %ID/g
  Spleen uptake: 3.59±0.68 %ID/g
  Stomach uptake: 1.00±0.11 %ID/g
  Testes uptake: 1.15±1.03 %ID/g
  Thyroid uptake: 2.72±0.13 %ID/g
  Tumor/Blood ratio: 7.64±2.06
  Tumor/Bone ratio: 8.83±2.62
  Tumor/Kidneys ratio: 2.30±0.04
  Tumor/Muscle ratio: 4.22±1.30
[1]; NSG mice, SK-MEL-1 xenograft, tail vein, unblocked, gamma counter, n = 5 ([^18F]FDG n = 4)
  SK-MEL-1 tumor uptake: 6.91 ± 0.66 %ID/g

## CCCC[C@H](NC(=O)CN1CCC(NC(=O)CN2CCN(CC(=O)O)CCN(CC(=O)O)CCN(CC(=O)O)CC2)CC1)C(=O)N[C@H]1CC(=O)NCCCC[C@@H](C(N)=O)NC(=O)[C@H](Cc2c[nH]c3ccccc23)NC(=O)[C@H](CCCNC(=N)N)NC(=O)[C@@H](Cc2ccccc2)NC(=O)[C@H](Cc2c[nH]cn2)NC1=O [[^68Ga]Ga-CCZ01048, metal not drawn]
[1]; co-injection of 20 pmol ^natGa-CCZ01048 vs none
  Reduction of tumor uptake: 57%
[1]; co-injection of 50 pmol ^natGa-CCZ01048 vs none
  Reduction of tumor uptake: 79%
[1]; co-injection of 100 pmol ^natGa-CCZ01048 vs none
  Reduction of tumor uptake: 83%
[2]; 5.9 pmol, without co-injection, total injected peptide mass 5.9 ± 0.90 pmol
  tissue uptake at 1 h: 6.15 ± 0.22 %ID/g
[2]; co-injection of 20 pmol ^natGa-CCZ01048, total peptide mass 27.5 ± 0.6 pmol
  tissue uptake at 1 h: 2.66 ± 0.22 %ID/g
[2]; co-injection of 50 pmol ^natGa-CCZ01048, total peptide mass 57.3 ± 1.0 pmol
  tissue uptake at 1 h: 1.31 ± 0.13 %ID/g
[2]; co-injection of 100 pmol ^natGa-CCZ01048, total peptide mass 109 ± 1.0 pmol
  tissue uptake at 1 h: 1.04 ± 0.17 %ID/g
